Assay results taken from patent US9663514B2 (Takeda Pharmaceutical Company Limited, priority 2011, dated 2017).

Molecular target: T1, SYK (Homo sapiens, UniProt P43405)
T1 construct: The SYK kinase domain (residues 356-635) is amplified via PCR; made in house; host or cells: Sf9 insect cells (baculovirus, pFastBac1)
Assay: SYK inhibition: in vitro assay of SYK-mediated phosphorylation of FAM-labeled substrate (Caliper LC-3000)
Assay type: biochemical
Details: SYK kinase domain (residues 356-635); 2.4 nM SYK and 45 μM ATP, 3 μM 5FAM-KKKKEEIYFFFG-NH2, RT 60 min, pH 7.3; pIC50 = −log(IC50), IC50 molar
Protocol: The ability of compounds to inhibit SYK activity may be assessed using a variety of methods, including in vitro and in vivo assays. The following in vitro assay measures a test compound's ability to inhibit SYK-mediated phosphorylation of a FAM-labeled SYK-specific substrate (5FAM-KKKKEEIYFFFG-NH2).
SYK protein is prepared from cDNA encoding human spleen tyrosine kinase and is expressed in insect cells using a baculovirus expression vector. The cDNA (IMAGE: 3542895) is purchased from Open Biosystems. The SYK kinase domain (residues 356-635) is amplified via PCR and cloned into plasmid pFastBacl (Invitrogen) at BamHI/XbaI sites. Recombinant plasmid encoding Met-Ala-Lys-SYK(356-635)-HHHHHH is sequenced and transformed into E. coli DH10Bac strain. The recombinant bacmid DNA is isolated and transfected into Sf9 insect cells. Recombinant virus is harvested 72 h after transfection. High titer viral stock is prepared by infecting Sf9 cells at a multiplicity of infection (MOI) of approximately 0.01. A suspension of Sf9 cells (10 L) is infected with recombinant virus (MOI=5) and is incubated in a Wave Bioreactor (GE-Healthcare) for 48 h. The cells are harvested and stored at −80° C.
To purify the expressed protein, the frozen Sf9 cells (10 L) are broken into small (<1 cm) particles and suspended in a lysis buffer (300 mL) containing 20 mM Tris (pH 7.6), 0.25 mM TCEP, 100 mM NaCl, 5% glycerol and a protease inhibitor. The suspension is stirred at RT until completely thawed, lysed an additional 2-4 min on a rotary blade homogenizer, and then centrifuged at 4200 g for 1 h. Following centrifugation, the supernatant is poured through cheese cloth and combined with a nickel chelating resin (Probond Resin™, Invitrogen) which is pre-equilibrated in a wash buffer containing 10 mM Tris (pH 7.6), 0.25 mM TCEP, 300 mM NaCl, 5% glycerol, and 20 mM imidazole. The mixture is agitated for 3 h in a cold room and then centrifuged at 900 g for 10 min. The resin is dispersed in wash buffer (50 mL), centrifuged for 10 min at 900 g, re-dispersed in a small amount of wash buffer (5 mL), and then pour into a disposable Poly-Prep chromatography column, through which wash buffer is passed by gravity until no protein is observed in coomassie buffer (about 120 mL of wash buffer). An elution buffer (30 mL) containing 10 mM HEPES (pH 7.4), 150 mM NaCl, 10% glycerol, 5 mM DTT, and 400 mM imidazole is used to elute the SYK protein from the resin. The eluate is concentrated (5 mL) and further purified on a Superdex 200 column (1.2 mL/min for 160 min, 10 mM HEPES (pH 7.4), 10 mM NaCl, 10 mM MgCl, 0.1 mM EDTA, and 0.25 mM TCEP). The chromatographed fractions are run on SDS-PAGE and the requisite fractions are pooled and concentrated. Final delivery buffer is 10 mM HEPES (pH 7.4), 10 mM Methione, 150 mM NaCl, 10% glycerol, 5 mM DTT.
SYK inhibition is determined using a black 384 well plate format in buffer containing 50 mM HEPES, 10 mM NaCl, 10 mM MgCl2, 0.2 mM EDTA, 0.01% EDA (Brij®35), 1 mM DTT, and 0.1 mg/ml BSA at pH 7.3. Each test compound is prepared in DMSO using 2-fold serial dilutions for 11 data points, which are added to the buffer so that each dilution contains 3% DMSO. To each well is added 2 μL of 3 μM SFAM-KKKKEEIYFFFG-NH2 (in buffer), 2 μL of diluted test compound (3% DMSO in buffer), and 2 μL of 2.4 nM SYK and 45 μM ATP (in buffer). The reaction mixture is incubated at RT for 60 min, and quenched by adding 50 mM Hepes, 30 mM EDTA, 0.1% Triton X-100 (pH 7.3). To quantify the fluorescent-labeled substrate and product following reaction, the test plate is loaded on a Caliper LC-3000, which measures percent of conversion by microfluidic-based separation. Corresponding IC50 values are calculated by non-linear curve fitting of the compound concentrations and percent of inhibition to the standard IC50 equation and reported as pIC50, i.e., −log(IC50), where IC50 is molar concentration.

Row | Compound | IC50 [nM]
1 | N[C@H]1COCC[C@H]1Nc1nc(-c2cc3ccc(F)cc3s2)c2c(c1F)CNC2=O [Example 19, 6-((3R,4R)-3-Aminotetrahydro-2H-pyran-4-ylamino)-7-fluoro-4-(6-fluorobenzo[b]thiophen-2-yl)-1H-pyrrolo[3,4-c]pyridin-3(2H)-one] | 0.158
2 | Cc1nn(C)c2cc(-c3nc(N[C@@H]4CCCC[C@@H]4N)c(F)c4c3C(=O)NC4)sc12 [Example 31, 6-((1R,2S)-2-Aminocyclohexylamino)-4-(1,3-dimethyl-1H-thieno[3,2-c]pyrazol-5-yl)-7-fluoro-1H-pyrrolo[3,4-c]pyridin-3(2H)-one] | 0.126
3 | N[C@H]1CCCC[C@H]1Nc1nc(CCc2ccccc2)c2c(c1F)CNC2=O [Example 47, 6-((1R,2S)-2-Aminocyclohexylamino)-7-fluoro-4-phenethyl-1H-pyrrolo[3,4-c]pyridin-3 (2H)-one] | 100
4 | CCOC(=O)c1ccn2cc(-c3nc(N[C@@H]4CCOC[C@@H]4N)c(F)c4c3C(=O)NC4)cc2c1 [Example 39, Ethyl 2-(6-((3R,4R)-3-Aminotetrahydro-2H-pyran-4-ylamino)-7-fluoro-3-oxo-2,3-dihydro-1H-pyrrolo[3,4-c]pyridin-4-yl)indolizine-7-carboxylate] | 2
5 | Cc1cc(-c2nc(N[C@@H]3CCOC[C@@H]3N)c(F)c3c2C(=O)N[C@H]3C)sn1 [Example 57, (S)-6-(((3R,4R)-3-Aminotetrahydro-2H-pyran-4-yl)amino)-7-fluoro-1-methyl-4-(3-methylisothiazol-5-yl)-1H-pyrrolo[3,4-c]pyridin-3(2H)-one] | 100
6 | Cc1c2sc(-c3nc(N[C@@H]4CCOC[C@@H]4N)c(F)c4c3C(=O)NC4)cc2nn1C [Example 34, 6-((3R,4R)-3-Aminotetrahydro-2H-pyran-4-ylamino)-4-(2,3-dimethyl-2H-thieno[3,2-c]pyrazol-5-yl)-7-fluoro-1H-pyrrolo[3,4-c]pyridin-3(2H)-one] | 1.26

Further lines, results first:

Row | IC50 [nM] | Compound
7 | 0.631 | Cc1cc(-c2nc(N[C@@H]3CCCC[C@@H]3N)c(F)c3c2C(=O)NC3)sn1 [Example 42, 6-((1R,2S)-2-Aminocyclohexylamino)-7-fluoro-4-(3-methylisothiazol-5-yl)-1H-pyaolo[3,4-c]pyridin-3(2H)-one]
8 | 5.01 | N[C@H]1CCCC[C@H]1Nc1nc(-c2cc3ncccc3s2)c2c(c1F)CNC2=O [Example 26, 6-((1R,2S)-2-Aminocyclohexylamino)-7-fluoro-4-(thieno[3,2-b]pyridin-2-yl)-1H-pyrrolo[3,4-c]pyridin-3(2H)-one]
9 | 0.316 | N[C@H]1CCCC[C@H]1Nc1nc(-c2cc3cnccc3s2)c2c(c1F)CNC2=O [Example 18, 6-((1R,2S)-2-Aminocyclohexylamino)-7-fluoro-4-(thieno[3,2-c]pyridin-2-yl)-1H-pyrrolo[3,4-c]pyridin-3(2H)-one]
10 | 0.398 | N[C@H]1CCCC[C@H]1Nc1nc(-c2cc3c(F)cccc3s2)c2c(c1F)CNC2=O [Example 24, 6-((1R,2S)-2-Aminocyclohexylamino)-7-fluoro-4-(4-fluorobenzo[b]thiophen-2-yl)-1H-pyrrolo[3,4-c]pyridin-3(2H)-one]
11 | 0.126 | Cc1nn(C)c2sc(-c3nc(N[C@@H]4CCCC[C@@H]4N)c(F)c4c3C(=O)NC4)cc12 [Example 36, 6-((1R,2S)-2-Aminocyclohexylamino)-4-(1,3-dimethyl-1H-thieno[2,3-c]pyrazol-5-yl)-7-fluoro-1H-pyrrolo[3,4-c]pyridin-3(2H)-one]
